Earlier results as cited in patent US20240199641A1, “QUINAZOLINE-4(3H)-ONE DERIVATIVES AS NEGATIVE ALLOSTERIC MODULATORS OF METABOTROPIC GLUTAMATE RECEPTOR 2” (Vanderbilt University, priority 2021, published 2024).
Read-outs that look alike come from different tables or passages of the source.

Assays:
[1] = olfactory bulbectomized rats, repeated administration for 14 days
[2] = CFS model
[3] = normal animals
[4] = social isolation reared mice
[5] = treatment for 7 days
[6] = normal animals; remark: listed apart in the source
[7] = mice
[8] = C57Bl6/J mice
[9] = system: central mGlu2 and mGlu3 receptors; conditions: in vivo
[10] = for activity in tail suspension test: Helpless (H) mice

Structure (SMILES)	freezing behavior [2]	antidepressant-like effects in mouse TST [3]	antidepressant-like effects in rat FST [6]	marble-burying behavior [7]	immobility time in FST [8]	hypolocomotor effect of mGlu2/3 agonist LY379268 [9]	activity in tail suspension test [10]	also measured
N[C@]1(C(=O)O)[C@H]2[C@@H](C[C@H]1OCc1ccc(Cl)c(Cl)c1)[C@]2(F)C(=O)O [MGS0039]	significantly decreased	Antidepressant-like effects	Antidepressant-like effects	reduced				hyperactivity in the open field test [1]: attenuated; learning deficit in the passive avoidance test [1]: attenuated; increased immobility in FST [4]: reversed; number of escape failures [5]: significantly reduced; spontaneous locomotor activity [7]: no significant change
N[C@](CC1c2ccccc2Oc2ccccc21)(C(=O)O)[C@H]1C[C@@H]1C(=O)O [LY341495]		Antidepressant-like effects	Antidepressant-like effects	significantly reduce	dose-dependently reduced	achieved the same result	active	antidepressant effect in helpless mice ([10]; acute administration): potent antidepressant effect
CN1C(=O)CN=C(c2ccccc2)c2cc(Cl)ccc21 [diazepam]	significantly decreased							
Cc1cc(-c2cccc(C3=Nc4cc(C)c(C(F)(F)F)cc4NC(=O)C3)c2)cc(C)n1 [RO4491533]					dose-dependently reduced	reversed	active	
CCCCCCCOC(=O)[C@@]1(F)[C@@H]2C[C@@H](OCc3ccc(Cl)c(Cl)c3)[C@@](N)(C(=O)O)[C@@H]21 [BCI-838]								duration of inhibition of group II mGlu receptors by brain concentration of active metabolite BCI-632 (group II mGlu receptors; once-daily oral dosing): 22 h; Dutch APP transgene-associated learning and memory impairment (group II mGlu receptors; three months of treatment): reversed; anxiolytic effects (group II mGlu receptors; three months of treatment): anxiolytic effects; levels of monomeric and oAβ peptides in hippocampus and cortex (group II mGlu receptors; three months of treatment, two AD mouse models): decreased; hippocampal progenitor cell proliferation (group II mGlu receptors; wild-type and Alzheimer's diseased mice, 3 months): stimulated
CNCCC(Oc1ccc(C(F)(F)F)cc1)c1ccccc1 (centres unmarked) [fluoxetine]								antidepressant effect in helpless mice ([10]; chronic (21 days) treatment): full antidepressant effect
